In patent US12240846B2 (Enliven Inc., priority 2020, dated 2025):

Tests used:
[1] = biological target: T1, ABL1 (Homo sapiens, UniProt P00519); assay: Luminescence-based ABL kinase assay (300 μM ATP), ADP-Glo; assay type: biochemical
T1 construct: purchased Carna Biosciences
Source text: Compounds were serially diluted in DMSO. […] Luminescence signal positively correlates with kinase activity.

[2] = system: K562 cells; assay: K562 cell proliferation assay (CellTiter-Glo); assay type: cell-based; details: Homo sapiens, K562 cell viability, 72 hours, read-out: Cell Line (IC50, nM) K562
[3] = system: pCRKL in K562 cells; assay: pCRKL ELISA assay in K562 cells; assay type: cell-based; details: Homo sapiens, 1.5 h, 90 minutes incubation, read-out: pCRKL ELISA, Cell Line IC50 (nM) K562
Experimental: K562 or Ba/F3 ABL T315I cells (2.0*10^5 cells/100 μl/well) were seeded in 96 well (Corning, cat #3799). Compounds were dissolved in DMSO, serially diluted in DMSO and then were added, mixed, and incubated for 90 minutes at 37° C., 5% CO2. Following the 90-minute incubation, plates were centrifuged for 5 min at 3000 RPM and supernatant was removed from each well. Cells were washed 3 times with 150 μl PBS prior to addition of 100 μl cell RIPA lysis buffer (Boston BioProducts, cat #BP-115D) supplied with 1× complete ULTRA cocktail inhibitor (Roche, 05892791001) and 1× PhosSTOP Phosphatase Inhibitor Cocktail Tablets (Roche, 04906837001). Cells were incubated with lysis buffer for 1 hour at 4° C. prior to storage at −80C.
A capture antibody able to detect phosphorylated and non-phosphorylated CRKL (R&D Systems, cat #AF5127) was added to Meso Scale Discovery (MSD) standard bind plates (MSD, cat #L15XA-3) at 5 ug/mL and incubated at 4° C. overnight. The next day, plates were washed with PBS+ 0.05% Tween20 (PBST) and 150 μl of 5% BSA blocking solution was added for 1 hour at room temperature with shaking. Plates were washed with PBST. Lysates were thawed and 30 μl of lysate was added to the MSD plates and incubated for 2 hours at room temperature with shaking. MSD plates were washed with PBST and 30 μl of a detection antibody that binds phosphorylated pCRKL (R&D Systems, cat #MAB6910) was added at 1 ug/mL to each well. Plates were incubated for 1 hour at room temperature with shaking. Plates were washed with PBST prior to addition of 30 μl of a sulfo tagged goat anti mouse detection antibody (MSD cat #R32AC-1). Plates were incubated for 1 hour at room temperature with shaking. Plates were washed with PBST prior to addition of 150 ul of 1×MSD read buffer T (MSD, cat #R92TC-2). Electrochemiluminescence (ECLU) was read on an MSD plate reader (Meso Scale Discovery). The remaining activity by calculated as follows: % Relative activity=100× (ELCUsample−ECLULC)/(ECLUHC−ECLULC). The low and high controls (LC/HC) are generated from lysate from wells without cells or with cells treated with 0.1% DMSO, respectively. IC50 values were calculated using XLFit software using a nonlinear regression model with a sigmoidal dose response and are shown in Table 4 and Table 5 below.

[4] = system: HL60 cells; assay: HL60 cell proliferation assay (CellTiter-Glo); assay type: cell-based; details: Homo sapiens, HL-60, HL60 cell viability, 72 hours, read-out: Cell Line (IC50, nM) HL60
[5] = biological target: ABL1 (T315I) (Homo sapiens, UniProt P00519, T315I); assay: Luminescence-based ABL kinase assay (300 μM ATP), ADP-Glo; assay type: biochemical
Experimental: Kinase activity of ABL1 was measured using the ADP-Glo system (Promega), which measures formation of ADP using a luminescence-based method. Compounds were serially diluted in DMSO. 20 nL of compound or DMSO only (high control, HC) were added to a 384-well plate (OptiPlate-384. PerkinElmer) using an Echo550 liquid handler (Labcyte). 15 μL of kinase solution (10 mM MgCl2, 0.01% Brij-35, 2 mM DTT, 0.05% BSA, 1 mM EGTA, 50 mM HEPES pH 7.5, and 3.325 nM ABL1 [Carna Biosciences]) were added to each well of the 384-well plate containing the compounds. No enzyme control wells were included (low control, LC). The plate was incubated at room temperature for 30 minutes. 5 μL of a second solution containing 10 mM MgCl2, 0.01% Brij-35, 2 mM DTT, 0.05% BSA, 1 mM EGTA, 50 mM HEPES pH 7.5, 6 μM Peptide 2 (Perkin Elmer, Cat No 760346), and 1.2 mM ATP were added to each well to start the kinase reaction. The plate was incubated for 90 minutes at room temperature. 20 μL of ADP-Glo reagent (Promega) were then added to each well and the plate was incubated for 40 minutes at room temperature. 40 μL of kinase detection reagent (Promega) was added to each well and the plate was incubated for an additional 45 minutes at room temperature. During this step, ADP was converted to ATP, a substrate for luciferase, to produce luminescence signal. Luminescence was measured on an Envision plate reader (Perkin Elmer). Luminescence signal positively correlates with kinase activity. The percent kinase activity was calculated as follows: percent kinase activity=100×(Lumsample−LumLC)/(LumHC−LumLC). As noted above, DMSO only and no enzyme wells were used as high and low controls, respectively. IC50 values were calculated using the XLFit software.

SMILES	IC50 [1]	IC50 [2]	IC50 [3]	IC50 [4]	IC50 [5]
COc1ccc(F)cc1-c1cc2cc(NC(=O)[C@@H]3C[C@@H]3F)ncc2n1C [Compound 26, (1S,2S)-2-fluoro-N-[2-(5-fluoro-2-methoxyphenyl)-1-methylpyrrolo[2,3-c]pyridin-5-yl]cyclopropane-1-carboxamide]	30.3 nM	174 nM	303 nM	2930 nM	8.99 nM
COc1cccc(F)c1-c1cc2cc(NC(=O)[C@@H]3C[C@@H]3F)ncc2n1C [Compound 27, (1S,2S)-2-fluoro-N-[2-(2-fluoro-6-methoxyphenyl)-1-methylpyrrolo[2,3-c]pyridin-5-yl]cyclopropane-1-carboxamide]	40.7 nM	112 nM	553 nM	761 nM	1.85 nM
Cn1c(-c2cccc3c2CCN3)cc2cc(NC(=O)[C@@H]3C[C@@H]3F)ncc21 [Compound 31, (1S,2S)-N-[2-(2,3-dihydro-1H-indol-4-yl)-1-methylpyrrolo[2,3-c]pyridin-5-yl]-2-fluorocyclopropane-1-carboxamide]	10.7 nM	143 nM	83.2 nM	514 nM	9.48 nM
[2H]C([2H])([2H])Oc1ncccc1-c1cc2cc(NC(=O)[C@@H]3C[C@@H]3F)ncc2n1C [Compound 32, (1S,2S)-2-fluoro-N-(2-(2-(methoxy-d3)pyridin-3-yl)-1-methyl-1H-pyrrolo[2,3-c]pyridin-5-yl)cyclopropane-1-carboxamide]	28.6 nM	182 nM	189 nM	5120 nM	83.1 nM
COc1ccccc1-c1c(C)c2cnc(NC(=O)[C@@H]3C[C@@H]3F)cc2n1C [Compound 52, (1S,2S)-2-fluoro-N-(2-(2-methoxyphenyl)-1,3-dimethyl-1H-pyrrolo[3,2-c]pyridin-6-yl)cyclopropane-1-carboxamide]	51.3 nM	109 nM	416 nM	1200 nM	4.23 nM
COc1ccccc1-c1c(C)c2cnc(NC(=O)[C@H]3C[C@H]3F)cc2n1C [Compound 53, (1R,2R)-2-fluoro-N-[2-(2-methoxyphenyl)-1,3-dimethylpyrrolo[3,2-c]pyridin-6-yl]cyclopropane-1-carboxamide]	82.4 nM	90.9 nM	574 nM	> 10000 nM	8.3 nM
COc1cccc(F)c1-c1c(C)c2cnc(NC(=O)[C@@H]3C[C@@H]3F)cc2n1C [Compound 54, (1S,2S)-2-fluoro-N-(2-(2-fluoro-6-methoxyphenyl)-1,3-dimethyl-1H-pyrrolo[3,2-c]pyridin-6-yl)cyclopropane-1-carboxamide]	51.9 nM	51.1 nM	151 nM	957 nM	6.51 nM
CCc1ncccc1-c1cc2cc(NC(=O)[C@@H]3C[C@@H]3F)ncc2n1C [Compound 112, (1S,2S)-N-[2-(2-ethylpyridin-3-yl)-1-methylpyrrolo[2,3-c]pyridin-5-yl]-2-fluorocyclopropane-1-carboxamide]	1320 nM	1780 nM		> 10000 nM	564 nM
COc1ncnc(C)c1-c1cc2cc(NC(=O)[C@@H]3C[C@@H]3F)ncc2n1C [Compound 113, (1S,2S)-2-fluoro-N-[2-(4-methoxy-6-methylpyrimidin-5-yl)-1-methylpyrrolo[2,3-c]pyridin-5-yl]cyclopropane-1-carboxamide]	84.4 nM	314 nM		> 10000 nM	366 nM
CCOc1nccc(C)c1-c1cc2cc(NC(=O)[C@@H]3C[C@@H]3F)ncc2n1C [Compound 114, (1S,2S)-N-[2-(2-ethoxy-4-methylpyridin-3-yl)-1-methylpyrrolo[2,3-c]pyridin-5-yl]-2-fluorocyclopropane-1-carboxamide]	77 nM	257 nM		> 10000 nM	546 nM
Cn1c(-c2cccnc2OC2CC2)cc2cc(NC(=O)[C@@H]3C[C@@H]3F)ncc21 [Compound 115, (1S,2S)-N-[2-(2-cyclopropoxypyridin-3-yl)-1-methylpyrrolo[2,3-c]pyridin-5-yl]-2-fluorocyclopropane-1-carboxamide]	18.5 nM	80.8 nM		1550 nM	469 nM
Cn1c(-c2cnccc2OC2CC2)cc2cc(NC(=O)[C@@H]3C[C@@H]3F)ncc21 [Compound 116, (1S,2S)-N-[2-(4-cyclopropoxypyridin-3-yl)-1-methylpyrrolo[2,3-c]pyridin-5-yl]-2-fluorocyclopropane-1-carboxamide]	66.9 nM	256 nM		9310 nM	1190 nM
Cn1c(-c2ccncc2OC2CC2)cc2cc(NC(=O)[C@@H]3C[C@@H]3F)ncc21 [Compound 117, (1S,2S)-N-[2-(3-cyclopropoxypyridin-4-yl)-1-methylpyrrolo[2,3-c]pyridin-5-yl]-2-fluorocyclopropane-1-carboxamide]	43.3 nM	141 nM		4180 nM	662 nM

Second part, the molecule after the results:

IC50 [1]	IC50 [2]	IC50 [3]	IC50 [4]	IC50 [5]	SMILES
27.1 nM	47.6 nM	108 nM	> 10000 nM	39.8 nM	COc1ccnc(OC)c1-c1cc2cc(NC(=O)[C@H]3C[C@@H]3CN3CCN(C)CC3)ncc2n1C (single isomer, unassigned) [Compound 120]
12.8 nM		254 nM		24.4 nM	COc1ccnc(OC)c1-c1cc2cc(NC(=O)[C@H]3C[C@@H]3CN3CCNCC3)ncc2n1C (single isomer, unassigned) [Compound 138]
35.3 nM	71.4 nM		929 nM	108 nM	COc1ncnc(OC)c1-c1cc2cc(NC(=O)C3CC3)ncc2n1C [Compound 118, N-[2-(4,6-dimethoxypyrimidin-5-yl)-1-methylpyrrolo[2,3-c]pyridin-5-yl]cyclopropanecarboxamide]
2.38 nM	9.35 nM		159 nM	1.76 nM	COc1cccc(OC)c1-c1cc2cc(NC(=O)[C@@H]3C[C@@H]3F)ncc2n1C [Compound 119, (1S,2S)-N-[2-(2,6-dimethoxyphenyl)-1-methylpyrrolo[2,3-c]pyridin-5-yl]-2-fluorocyclopropane-1-carboxamide]
316 nM	381 nM		> 10000 nM	1990 nM	COc1nc(C)ncc1-c1cc2cc(NC(=O)[C@@H]3C[C@@H]3F)ncc2n1C [Compound 141, (1S,2S)-2-fluoro-N-[2-(4-methoxy-2-methylpyrimidin-5-yl)-1-methylpyrrolo[2,3-c]pyridin-5-yl]cyclopropane-1-carboxamide]
18.6 nM	59.3 nM		1690 nM	17.5 nM	CCc1ccnc(OC)c1-c1cc2cc(NC(=O)[C@@H]3C[C@@H]3F)ncc2n1C [Compound 142, (1S,2S)-N-[2-(4-ethyl-2-methoxypyridin-3-yl)-1-methylpyrrolo[2,3-c]pyridin-5-yl]-2-fluorocyclopropane-1-carboxamide]
74.9 nM	289 nM		9800 nM	299 nM	CCOc1ncc(F)cc1-c1cc2cc(NC(=O)[C@@H]3C[C@@H]3F)ncc2n1C [Compound 143, (1S,2S)-N-[2-(2-ethoxy-5-fluoropyridin-3-yl)-1-methylpyrrolo[2,3-c]pyridin-5-yl]-2-fluorocyclopropane-1-carboxamide]
